# Laboratory results as given in PMC3899525 (Cell, 2013).
# Biological target: T1, Gr21a/Gr63a heteromeric CO2 receptor (ab1C neuron) (Drosophila melanogaster, UniProt Q9VPT1+Q9VZL7)
# T1 sequence (Q9VPT1 1-447): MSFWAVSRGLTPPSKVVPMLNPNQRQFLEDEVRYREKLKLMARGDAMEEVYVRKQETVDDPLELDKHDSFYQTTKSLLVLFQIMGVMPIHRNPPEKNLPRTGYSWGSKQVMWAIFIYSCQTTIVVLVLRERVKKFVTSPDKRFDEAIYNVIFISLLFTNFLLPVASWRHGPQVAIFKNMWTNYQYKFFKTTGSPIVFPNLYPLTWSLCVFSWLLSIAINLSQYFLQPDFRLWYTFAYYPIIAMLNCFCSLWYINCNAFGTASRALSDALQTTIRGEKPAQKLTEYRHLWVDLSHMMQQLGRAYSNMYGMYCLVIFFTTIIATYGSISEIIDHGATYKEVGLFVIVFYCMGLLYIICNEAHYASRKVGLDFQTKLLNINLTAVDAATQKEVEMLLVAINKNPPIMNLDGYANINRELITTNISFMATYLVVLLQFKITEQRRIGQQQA
# T1 sequence (Q9VZL7 1-512): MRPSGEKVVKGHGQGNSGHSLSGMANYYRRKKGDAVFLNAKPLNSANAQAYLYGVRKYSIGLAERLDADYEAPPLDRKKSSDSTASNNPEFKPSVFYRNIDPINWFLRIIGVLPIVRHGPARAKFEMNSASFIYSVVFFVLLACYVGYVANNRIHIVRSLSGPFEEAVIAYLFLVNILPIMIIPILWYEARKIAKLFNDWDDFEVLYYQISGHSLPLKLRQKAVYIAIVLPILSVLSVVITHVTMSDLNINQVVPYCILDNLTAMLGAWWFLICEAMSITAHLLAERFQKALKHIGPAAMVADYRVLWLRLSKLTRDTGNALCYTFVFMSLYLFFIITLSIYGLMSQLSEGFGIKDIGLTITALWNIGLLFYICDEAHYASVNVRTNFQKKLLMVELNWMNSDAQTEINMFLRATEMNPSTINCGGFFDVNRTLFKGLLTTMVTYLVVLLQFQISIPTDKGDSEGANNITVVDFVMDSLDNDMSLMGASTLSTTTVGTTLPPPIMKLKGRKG
# Assay: single-sensillum recording of ab1C neuron
# Type: cell-based
# Details: inhibitor; orco mutant flies; native neuron in vivo
smiles,measurement,value
CCOC(=O)C(C)=O [ethyl pyruvate],single-sensillum recording of ab1C neuron,the cpA inhibitor ethyl pyruvate also effectively inhibited the ab1C neuron
